# Test system: cultured adult rat retinal ganglion cells (RGCs)
# Assay: Glutamate-induced toxicity in cultured adult rat retinal ganglion cells (RGC survival, Thy-1-positive cell count)
# Type: cell-based
# Settings: Compound at 1 μM, 30 min pre-treatment, then 100 μM glutamate for 3 days; Thy-1-positive healthy cells counted; 70% of RGCs survived with glutamate alone
# Description: Adult Sprague-Dawley rats were euthanized by CO2 asphyxiation. Their eyes were enucleated and the retinas isolated. Retinal cells were treated with of papain solution for 25 min at 37° C., then washed 3 times with 5 mL RGC culture medium (Neurobasal medium with various nutrient supplements+1% fetal calf serum). Retinal cells were dispersed by trituration. Cell suspension was placed onto poly-D-lysine- and laminin-coated 8-well chambered culture slides. The cells were then cultured in 95% air/5% CO2 at 37° C.
# For glutamate-induced toxicity studies, cells were pre-treated with vehicle or the indicated compounds for 30 minutes, followed by 100 μM glutamate for 3 days. At the end of the incubation period, the cells were fixed and labeled for Thy-1, a RGC marker, by immunocytochemistry. Cell survival was quantified by manually counting Thy-1-positive healthy cells in each well.
smiles,measurement,value
COC(=O)CNC(=O)c1ncccc1O [Compound 1],protection against glutamate-induced cytotoxicity (RGC survival),protective against this insult
